Data taken from patent publication US20250197377A1, “NOVEL PHARMACEUTICAL SALTS AND POLYMORPHIC FORMS OF AN ERBB AND BTK INHIBITOR” (DIZAL (JIANGSU) PHARMACEUTICAL CO., LTD., priority 2021, published 2025).
pIC50: −log10 of the molar value. Converted amounts (≈) assume the structure as drawn. “And” between values parts separate entries of the source, which are not always exact repeats. Equal entries are not always repeated. Where two headings read alike, the source gives them in different places.

Experiments:
[1] = Dynamic moisture sorption analysis (DVS); type: physicochemical
Method: DVS was determined using DVS Advantage-1 or Intrinsic (SMS, UK). The sample was tested at a targeted RH of 10 to 90% full cycle in step mode. The analysis was performed in 10% RH increments. Equilibrium:60 min RH (%) measurement points: First cycle: 0, 10, 20, 30, 40, 50, 60, 70, 80, 90. Second cycle: 90, 80, 70, 60, 50, 40, 30, 20, 10, 0.

[2] = target: T1, EGFR Wildtype (Homo sapiens, UniProt P00533); assay: In vitro cell based assay, PD IC50, A431
T1 construct: Form A and B in vitro cell based assay; endogenous in cells; host or cells: A431
T1 sequence (P00533 25-1210): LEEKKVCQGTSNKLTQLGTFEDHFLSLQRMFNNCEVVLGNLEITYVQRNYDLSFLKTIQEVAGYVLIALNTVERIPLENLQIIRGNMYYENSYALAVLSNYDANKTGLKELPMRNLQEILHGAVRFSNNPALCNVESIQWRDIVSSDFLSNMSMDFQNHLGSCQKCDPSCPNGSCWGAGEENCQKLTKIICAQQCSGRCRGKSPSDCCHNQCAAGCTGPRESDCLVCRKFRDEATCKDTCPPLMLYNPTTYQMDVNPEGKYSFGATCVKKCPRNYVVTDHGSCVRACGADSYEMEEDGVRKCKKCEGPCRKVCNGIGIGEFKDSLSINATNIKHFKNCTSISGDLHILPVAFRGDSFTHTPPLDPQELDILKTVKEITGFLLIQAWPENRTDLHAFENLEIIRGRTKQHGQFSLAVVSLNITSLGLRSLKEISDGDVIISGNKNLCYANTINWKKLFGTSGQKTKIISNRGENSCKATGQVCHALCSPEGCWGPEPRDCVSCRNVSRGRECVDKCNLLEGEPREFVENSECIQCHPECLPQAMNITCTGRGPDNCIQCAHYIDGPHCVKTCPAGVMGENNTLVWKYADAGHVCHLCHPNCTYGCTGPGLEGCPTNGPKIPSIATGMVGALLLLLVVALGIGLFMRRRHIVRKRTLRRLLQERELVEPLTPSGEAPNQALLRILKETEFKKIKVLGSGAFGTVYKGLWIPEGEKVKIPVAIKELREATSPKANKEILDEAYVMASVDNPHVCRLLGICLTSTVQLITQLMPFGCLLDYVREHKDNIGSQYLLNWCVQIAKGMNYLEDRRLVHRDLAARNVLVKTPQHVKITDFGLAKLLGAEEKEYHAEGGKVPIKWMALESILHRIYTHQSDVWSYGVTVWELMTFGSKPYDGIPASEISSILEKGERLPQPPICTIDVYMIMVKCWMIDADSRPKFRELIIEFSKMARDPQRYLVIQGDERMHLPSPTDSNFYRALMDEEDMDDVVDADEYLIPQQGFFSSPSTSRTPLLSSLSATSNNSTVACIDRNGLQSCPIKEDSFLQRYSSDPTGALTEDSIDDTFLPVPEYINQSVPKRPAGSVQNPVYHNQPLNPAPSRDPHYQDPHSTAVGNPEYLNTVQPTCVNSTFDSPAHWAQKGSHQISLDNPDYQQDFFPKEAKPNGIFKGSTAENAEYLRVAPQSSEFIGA

[3] = PK study of Form A and Form B in Dog; type: in vivo; settings: 10 mg/kg
[4] = target: T2, EGFR H773_V774insNPH (Homo sapiens, UniProt P00533, INS773NPH); assay: In vitro cell based assay, PD IC50, Ba/F3_NPH
T2 construct: expressed in transfected cells; host or cells: Ba/F3 (Ba/F3_NPH)
T2 sequence (P00533 with tags, fused parts or gaps INS773NPH): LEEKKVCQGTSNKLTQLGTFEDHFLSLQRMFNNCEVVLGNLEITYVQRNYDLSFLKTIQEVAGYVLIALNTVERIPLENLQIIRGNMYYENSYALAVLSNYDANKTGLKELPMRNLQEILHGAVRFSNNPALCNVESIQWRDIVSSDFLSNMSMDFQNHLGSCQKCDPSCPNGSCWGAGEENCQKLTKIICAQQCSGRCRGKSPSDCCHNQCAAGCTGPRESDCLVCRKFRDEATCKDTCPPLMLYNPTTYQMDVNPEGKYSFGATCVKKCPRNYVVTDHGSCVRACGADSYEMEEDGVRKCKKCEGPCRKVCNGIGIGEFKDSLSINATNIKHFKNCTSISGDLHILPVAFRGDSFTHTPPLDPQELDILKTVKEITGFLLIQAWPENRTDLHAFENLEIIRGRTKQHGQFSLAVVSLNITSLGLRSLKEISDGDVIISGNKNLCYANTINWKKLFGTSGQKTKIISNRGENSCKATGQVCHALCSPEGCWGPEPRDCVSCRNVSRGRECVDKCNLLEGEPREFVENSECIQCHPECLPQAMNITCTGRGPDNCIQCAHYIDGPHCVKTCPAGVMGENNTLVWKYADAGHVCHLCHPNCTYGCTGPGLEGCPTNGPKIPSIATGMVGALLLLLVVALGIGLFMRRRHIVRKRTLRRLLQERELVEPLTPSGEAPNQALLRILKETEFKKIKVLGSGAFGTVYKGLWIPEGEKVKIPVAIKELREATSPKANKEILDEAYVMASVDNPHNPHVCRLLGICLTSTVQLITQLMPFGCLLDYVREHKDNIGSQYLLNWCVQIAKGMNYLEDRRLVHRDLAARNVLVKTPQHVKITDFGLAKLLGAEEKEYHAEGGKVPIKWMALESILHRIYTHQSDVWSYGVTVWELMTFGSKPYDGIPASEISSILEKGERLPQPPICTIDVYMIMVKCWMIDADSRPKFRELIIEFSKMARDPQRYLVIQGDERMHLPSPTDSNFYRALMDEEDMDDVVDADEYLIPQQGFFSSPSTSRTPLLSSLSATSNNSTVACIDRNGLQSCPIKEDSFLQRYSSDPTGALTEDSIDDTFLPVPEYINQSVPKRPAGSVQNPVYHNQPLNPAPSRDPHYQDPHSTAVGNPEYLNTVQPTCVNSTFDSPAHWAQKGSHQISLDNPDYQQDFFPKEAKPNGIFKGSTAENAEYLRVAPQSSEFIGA

[5] = tested on: NCI-H1975; assay: In vitro cell based assay, anti-proliferation GI50, NCI-H1975; settings: Homo sapiens, NCI-H1975, EGFR L858R/T790M
[6] = Form A and Form B inter-conversion study (competitive slurry, XRPD); type: physicochemical
Method: Competitive slurry experiments were conducted to evaluate the relative stability of Form A and Form B. Inter-conversion study was performed at room temperature and 50° C. using single and binary solvents listed in the Table 1 below. About 80 mg (100 mg for 50° C.) of Form A and Form B (1:1, w/w) was weighed into sample vials (8 mL) and then 3 mL (2 mL for 50° C.) of solvents were added to each vial. The obtained suspensions were kept stirring for 7 days at room temperature and 50° C., then filtered at specified time. The wet and dried solids were analyzed by XRPD (dried in vacuum oven at 45° C.).
Form B was dominant in tested solvent systems with water activity below 0.15 at room temperature (24˜27° C.). […] Pure Form A and Form B were stable during drying process (50° C., vacuum) for at least 2 days.

[7] = tested on: Ba/F3_NPH; assay: In vitro cell based assay, anti-proliferation GI50, Ba/F3_NPH; settings: EGFR H773_V774insNPH
[8] = Solubility in organic solvents and water; type: physicochemical; settings: r.t.
[9] = target: T3, HER2 A775_G776insYVMA (Homo sapiens, UniProt P04626, INS775YVMA); assay: In vitro cell based assay, PD IC50, 3T3_YVMA
T3 construct: expressed in transfected cells; host or cells: 3T3 (3T3_YVMA)

[10] = Solubility in bio-relevant media; type: physicochemical
[11] = tested on: A431; assay: In vitro cell based assay, anti-proliferation GI50, A431; settings: Homo sapiens, A-431, EGFR Wildtype
[12] = tested on: 3T3_YVMA; assay: In vitro cell based assay, anti-proliferation GI50, 3T3_YVMA; settings: HER2 A775_G776insYVMA
[13] = Water activity study of Form A and Form B (slurry, XRPD); type: physicochemical; settings: 24~27° C. (before dry)
Method: To study the effects of water on the stability of Form A and Form B, slurry experiments in the systems with different water activity were carried out. Form A or Form B was suspended separately in different water activity systems (Table 4). […] Residual solids were filtered and then dried in the vacuum oven at 45° C. for 8-24 hours. Dry solids were characterized by XRPD.

[14] = target: T4, EGFR L858R/T790M (Homo sapiens, UniProt P00533, L858R/T790M); assay: In vitro cell based assay, PD IC50, NCI-H1975
T4 construct: Form A and B in vitro cell based assay; endogenous in cells; host or cells: NCI-H1975
T4 sequence (P00533 25-1210 T790M/L858R): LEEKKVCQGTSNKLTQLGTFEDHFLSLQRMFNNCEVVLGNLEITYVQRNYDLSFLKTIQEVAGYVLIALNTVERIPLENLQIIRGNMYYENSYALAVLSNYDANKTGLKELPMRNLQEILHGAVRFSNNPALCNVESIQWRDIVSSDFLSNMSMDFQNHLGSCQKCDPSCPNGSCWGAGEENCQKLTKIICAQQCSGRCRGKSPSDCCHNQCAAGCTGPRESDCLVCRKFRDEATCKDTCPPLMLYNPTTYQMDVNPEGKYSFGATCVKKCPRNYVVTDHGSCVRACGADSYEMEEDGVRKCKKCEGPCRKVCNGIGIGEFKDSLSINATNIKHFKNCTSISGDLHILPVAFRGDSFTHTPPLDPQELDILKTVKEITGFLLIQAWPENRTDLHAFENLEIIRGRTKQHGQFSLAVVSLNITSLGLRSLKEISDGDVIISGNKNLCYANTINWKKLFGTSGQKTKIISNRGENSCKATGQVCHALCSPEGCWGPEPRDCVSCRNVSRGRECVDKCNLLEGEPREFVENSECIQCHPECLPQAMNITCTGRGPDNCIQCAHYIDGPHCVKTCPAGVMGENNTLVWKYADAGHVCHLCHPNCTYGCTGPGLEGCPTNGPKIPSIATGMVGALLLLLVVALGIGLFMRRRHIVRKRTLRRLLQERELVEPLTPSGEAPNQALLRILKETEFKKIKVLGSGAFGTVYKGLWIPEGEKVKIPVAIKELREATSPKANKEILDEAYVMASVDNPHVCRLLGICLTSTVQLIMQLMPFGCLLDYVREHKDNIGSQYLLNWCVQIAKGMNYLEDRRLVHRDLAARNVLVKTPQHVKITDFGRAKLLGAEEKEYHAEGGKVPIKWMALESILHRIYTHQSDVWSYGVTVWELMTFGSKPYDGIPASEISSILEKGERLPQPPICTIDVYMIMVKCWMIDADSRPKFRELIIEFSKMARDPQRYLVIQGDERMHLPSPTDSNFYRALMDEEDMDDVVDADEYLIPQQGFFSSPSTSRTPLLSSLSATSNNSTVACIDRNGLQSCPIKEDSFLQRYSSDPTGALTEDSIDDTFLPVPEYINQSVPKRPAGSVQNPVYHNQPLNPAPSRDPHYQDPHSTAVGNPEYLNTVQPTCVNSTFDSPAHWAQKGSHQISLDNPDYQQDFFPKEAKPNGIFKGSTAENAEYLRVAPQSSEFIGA

[15] = tested on: PC-9; assay: In vitro cell based assay, anti-proliferation GI50, PC-9; settings: Homo sapiens, PC-9, EGFR 19Del
[16] = target: T5, EGFR 19Del (Homo sapiens, UniProt P00533, DEL746-750); assay: In vitro cell based assay, PD IC50, PC-9
T5 construct: Form A and B in vitro cell based assay; endogenous in cells; host or cells: PC-9
T5 sequence (P00533 with tags, fused parts or gaps DEL746-750): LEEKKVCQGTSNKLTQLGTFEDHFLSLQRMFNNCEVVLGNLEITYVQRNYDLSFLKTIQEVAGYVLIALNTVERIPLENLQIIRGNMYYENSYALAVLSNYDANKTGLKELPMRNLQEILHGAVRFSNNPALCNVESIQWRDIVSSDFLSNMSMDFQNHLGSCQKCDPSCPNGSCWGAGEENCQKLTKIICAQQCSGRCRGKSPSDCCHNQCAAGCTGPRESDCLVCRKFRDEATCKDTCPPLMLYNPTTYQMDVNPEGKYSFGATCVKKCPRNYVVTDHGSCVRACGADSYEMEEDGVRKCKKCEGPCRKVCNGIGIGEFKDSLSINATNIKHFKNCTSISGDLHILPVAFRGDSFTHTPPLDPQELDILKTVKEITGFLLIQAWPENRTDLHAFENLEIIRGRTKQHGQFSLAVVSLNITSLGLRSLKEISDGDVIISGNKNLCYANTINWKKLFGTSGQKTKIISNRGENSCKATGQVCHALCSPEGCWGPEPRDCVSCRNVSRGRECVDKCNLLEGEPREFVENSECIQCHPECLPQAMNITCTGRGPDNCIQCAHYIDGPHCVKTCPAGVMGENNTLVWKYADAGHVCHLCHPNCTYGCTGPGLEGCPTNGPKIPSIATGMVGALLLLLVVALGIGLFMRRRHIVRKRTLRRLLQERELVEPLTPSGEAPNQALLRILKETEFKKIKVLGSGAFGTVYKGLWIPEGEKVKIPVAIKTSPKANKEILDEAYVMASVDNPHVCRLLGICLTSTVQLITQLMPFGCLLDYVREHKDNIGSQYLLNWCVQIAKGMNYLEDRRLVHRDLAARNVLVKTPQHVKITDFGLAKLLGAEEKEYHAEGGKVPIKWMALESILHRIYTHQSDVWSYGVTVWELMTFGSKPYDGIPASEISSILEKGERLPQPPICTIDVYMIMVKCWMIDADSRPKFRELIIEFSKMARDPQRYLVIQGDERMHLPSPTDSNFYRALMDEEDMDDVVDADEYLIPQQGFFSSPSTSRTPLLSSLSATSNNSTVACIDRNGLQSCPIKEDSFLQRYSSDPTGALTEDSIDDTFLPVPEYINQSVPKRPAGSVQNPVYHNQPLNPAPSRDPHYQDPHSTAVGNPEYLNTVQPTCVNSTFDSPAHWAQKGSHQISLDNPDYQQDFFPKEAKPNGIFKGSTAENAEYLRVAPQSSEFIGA

[17] = PK study of Form A and Form B in Rat; type: in vivo; settings: rat, in vivo; for AUC(0-t): read-out: Mean AUC0~48; for half-life: read-out: Mean t1/2 (converted); for Tmax: read-out: Median Tmax

For C=CC(=O)Nc1cc(Nc2nccc(Nc3cc(Cl)c(F)cc3C(C)(C)O)n2)c(OC)cc1N1CC[C@@H](N(C)C)C1 [Form A, (R)-N-(5-((4-((5-chloro-4-fluoro-2-(2-hydroxypropan-2-yl)phenyl)amino)pyrimidin-2-yl)amino)-2-(3-(dimethylamino)pyrrolidin-1-yl)-4-methoxyphenyl)acrylamide], the “DVS (ΔW %, 80% RH)” value [1] was 0.63%, the pIC50 [2] was 7.37 and the AUC0-24 h ([3]; Female (individual animals)) was 2.30 hr*μM/(mg/kg) and 1.80 hr*μM/(mg/kg). The AUC0-24 h ([3]; Male (individual animals)) was 3.47 hr*μM/(mg/kg) and 5.47 hr*μM/(mg/kg), the pIC50 [4] was 7.49 and the GI50 [5] was 2.22 nM. The “Stability of pure form during drying process” value ([6]; 50° C., vacuum, at least 2 days) was “stable”, the “Form change during the drying process” value ([6]; mixture of Form A and Form B) was “converted into Form B” and the GI50 [7] was 58.2 nM. For the same compound, the Solubility ([8]; Acetonitrile) was “S < 2.14 mg/ml”, the Solubility ([8]; EtOH, organic solvent or mixture, EtOH, read-out: Solubility) was 13400 to 17800 µg/mL (≈ 22.9 to 30.5 mM) and the Solubility ([8]; Ethyl acetate) was “S < 2.16 mg/ml”. The Solubility ([8]; MTBE, organic solvent or mixture, MTBE, read-out: Solubility) was < 1820 µg/mL, the Solubility ([8]; MeOH, organic solvent or mixture, MeOH, read-out: Solubility) was 24800 to 49500 µg/mL (≈ 42.4 to 84.7 mM) and the Solubility ([8]; THF, organic solvent or mixture, THF, read-out: Solubility) was 17200 to 25800 µg/mL (≈ 29.4 to 44.1 mM). For the same compound, the Solubility ([8]; acetone, organic solvent or mixture, Acetone, read-out: Solubility) was 5120 to 5690 µg/mL (≈ 8.77 to 9.74 mM), the Solubility ([8]; isopropanol, organic solvent or mixture, Isopropanol, read-out: Solubility) was 4450 to 4940 µg/mL (≈ 7.62 to 8.46 mM) and the Solubility ([8]; water, read-out: Solubility) was < 2040 µg/mL. The pIC50 [9] was 8.42, the Solubility ([10]; FaSSIF, 0.5 h) was 170 µg/mL (≈ 0.291 mM) and the Solubility ([10]; FaSSIF, 2 h) was 190 µg/mL (≈ 0.325 mM). It also gave a Solubility ([10]; FaSSIF, 24 h) of 260 µg/mL (≈ 0.445 mM), a Solubility ([10]; FeSSIF, 0.5 h) of 4600 µg/mL (≈ 7.88 mM) and a Solubility ([10]; FeSSIF, 2 h) of 6880 µg/mL (≈ 11.8 mM). The Solubility ([10]; FeSSIF, 24 h) was 11640 µg/mL (≈ 19.9 mM), the Solubility ([10]; SGF, 0.5 h) was 23120 µg/mL (≈ 39.6 mM) and the Solubility ([10]; SGF, 2 h) was 24350 µg/mL (≈ 41.7 mM). For the same compound, the Solubility ([10]; SGF, 24 h) was 24410 µg/mL (≈ 41.8 mM), the Solubility ([10]; SIF, 0.5 h) was 29 µg/mL (≈ 0.0496 mM) and the Solubility ([10]; SIF, 2 h) was 40 µg/mL (≈ 0.0685 mM). It also gave a Solubility ([10]; SIF, 24 h) of 40 µg/mL (≈ 0.0685 mM), a GI50 [11] of 42.2 nM and a GI50 [12] of 44.3 nM. For the same compound, the “XRPD results of slurry in different water activity solvent” value ([13]; 0% water/acetone, water activity 0, 1 d) was “Form A”, the “XRPD results of slurry in different water activity solvent” value ([13]; 0% water/acetone, water activity 0, 3 d) was “Form A” and the “XRPD results of slurry in different water activity solvent” value ([13]; 0% water/acetone, water activity 0, 7 d) was “Form A + B”. The “XRPD results of slurry in different water activity solvent” value ([13]; 3% water/acetone, water activity 0.312, 3 d) was “Form A”, the “XRPD results of slurry in different water activity solvent” value ([13]; 3% water/acetone, water activity 0.312, 7 d) was “Form A + B” and the “XRPD results of slurry in different water activity solvent” value ([13]; 30% water/acetone, water activity 0.747, 1 d) was “Form A”. For the same compound, the “XRPD results of slurry in different water activity solvent” value ([13]; 30% water/acetone, water activity 0.747, 3 d) was “Form A”, the “XRPD results of slurry in different water activity solvent” value ([13]; 30% water/acetone, water activity 0.747, 7 d) was “Form A + B” and the “XRPD results of slurry in different water activity solvent” value ([13]; water, 7 d) was “Form A”. The pIC50 [14] was 8.68, the GI50 [15] was 4.76 nM and the pIC50 [16] was 8.67. The Cmax ([17]; 25 mg/kg) was 199 ng/mL, the AUC(0-t) ([17]; 25 mg/kg) was 2130 ng·h/mL and the half-life ([17]; 25 mg/kg) was 4.4 h. The Tmax ([17]; 25 mg/kg) was 4 h, the Cmax ([17]; 75 mg/kg) was 506 ng/mL and the AUC(0-t) ([17]; 75 mg/kg) was 6870 ng·h/mL. For the same compound, the half-life ([17]; 75 mg/kg) was 6 h and the Tmax ([17]; 75 mg/kg) was 4 h.
